According to paper PMC11865978, “Cellular Activity of CQWW Nullomer-Derived Peptides” (ACS Omega, 2025):

What was measured:
Assay type in all cases: cell-based, human
[1] = system: GCGR-E28; conditions: 72 h
Description: (§1) Peptides were tested in an automated image-based high-content[42] cell painting[43],[44] assay that was originally developed to explore the mechanism of action of pharmacological and genetic perturbations within cells,[45] as well as a live cell imaging assay against six patient-derived glioblastoma cell lines (GCGR-E13, GCGR-E28, GCGR-E21, GCGR-E57, GCGR-E31, and GCGR-E34), covering classical, mesenchymal, and proneural subtypes, respectively (see Methods and Figure 1B–D), along with a healthy human fetal neuronal stem cell line (GCGR-NS9FB_B).
(§2) Cell survival was quantified by nuclei counts from the Hoechst dye-stained nuclei and IC50 values calculated along with 95% confidence intervals (Figure 1B; see Table S2 for full details). […]
(§3) High Content Phenotypic Screening assays
(§4) Cell lines (glioma stem cell lines and normal foetal neural stem cells) were seeded on laminin (10 µg/mL) coated 384-well plates (Greiner Bio-One, 781091) at 1,000 cells/well and incubated overnight at 37 °C and 5% CO2. Aqueous peptide solutions (10 mM) were further diluted to 1 mM in water containing 10 % glycerol and 0.01 % TX-100. Cells were dosed using a D300 digital dispenser (Tecan) by 10-point dose response (30 µM – 1 µM) in triplicate and with aqueous glycerol/TX-100 as control. The cells were placed in an IncuCyte live cell imager (Essen BioScience) and imaged every three hours for 72 hours. Prior to fixation, the plates were removed from the IncuCyte and stained with Mitrotracker DeepRed (Invitrogen, M22426, 300 nM, 30 minutes). Cells were then fixed using 4 % formaldehyde and permeabilized with 0.1 % TX-100 in PBS. The cells were stained with ‘Cell Painting’ […]
(§5) assay reagents1: Hoechst 33342 (10 mg/mL stock, Molecular Probes, 1:5000), SYTO14 […]
(§6) BSA/PBS. The plates were imaged using an ImageXpress high content microscope (Molecular Devices). Cells were imaged with a 20× objective, covering 6 fields-of-view in each well. The data was then analyzed using a custom CellProfiler software pipeline using the University of Edinburgh high performance computing cluster. Dose response plots were calculated using HC StratomineR (corelifeanalytics.com). Nuclei count data was analyzed separately to generate cell survival metrics (normalized to aqueous glycerol/TX -100 control). […]

[2] = system: GCGR-NS9FB_B; conditions: 72 h
Description: as §1, §2, §3, §4, §5, §6

[3] = system: GCGR-E57; conditions: 72 h
Description: as §1, §2, §3, §4, §5, §6

[4] = system: GCGR-E31; conditions: 72 h
Description: as §1, §2, §3, §4, §5, §6

[5] = system: patient-derived glioblastoma cell lines; experiment: Cell survival by nuclei counts, summarised across cell lines; conditions: ratio of nuclei-count IC50s
Description: as §1, §2, §3
(§7) Cell lines (glioma stem cell lines and normal foetal neural stem cells) were seeded on laminin (10 µg/mL) coated 384-well plates (Greiner Bio-One, 781091) at 1,000 cells/well and incubated overnight at 37 °C and 5% CO2. […]
as §6, with “The plates were imaged using an ImageXpress high content microscope (Molecular Devices). Cells were imaged with a 20× objective, covering 6 fields-of-view in each well.” left out

[6] = system: GCGR-E34; conditions: 72 h
Description: as §1, §2, §3
as §7, with “CO2. Aqueous peptide solutions (10 mM) were further diluted to 1 mM in water containing 10 % glycerol and 0.01 % TX-100.” for “CO2.”
(§8) The cells were placed in an IncuCyte live cell imager (Essen BioScience) and imaged every three hours for 72 hours. Prior to fixation, the plates were removed from the IncuCyte and stained with Mitrotracker DeepRed (Invitrogen, M22426, 300 nM, 30 minutes). Cells were then fixed using 4 % formaldehyde and permeabilized with 0.1 % TX-100 in PBS. The cells were stained with ‘Cell Painting’ […]
as §5, §6

[7] = system: GCGR-E13; conditions: 72 h
Description: as §1, §2, §3
as §7, with “CO2. Aqueous peptide solutions (10 mM) were further diluted to 1 mM in water containing 10 % glycerol and 0.01 % TX-100.” for “CO2.”
as §8, §5, §6

[8] = system: GCGR-E21; conditions: 72 h
Description: as §1, §2, §3
as §7, with “CO2. Aqueous peptide solutions (10 mM) were further diluted to 1 mM in water containing 10 % glycerol and 0.01 % TX-100.” for “CO2.”
as §8, §5, §6

Q: What does the source list for H-RRRRRCQWW-NH2 [Peptide 2]?
A: IC50 [1]: 5.4 µM; IC50 [2]: 7.9 µM; IC50 [3]: 4.3 µM; IC50 [4]: 5.1 µM; selectivity for reduction in nuclei counts, glioblastoma stem cells compared to normal neural stem cells (GCGR-NS9FB_B) [5]: 1.5- to 2 fold; IC50 [6]: 5.2 µM; IC50 [7]: 4.4 µM; IC50 [8]: 4.8 µM
